The test system of the experiment is kynurenine production in HeLa cells. Nature of the experiment: Inhibition of kynurenine production in HeLa cells. In kind it is cell-based, human. The following applies: 48 h. As to the method:
The effect of compounds described herein on the inhibition of kynurenine production in HeLa cells (derived from human cervical cancer) was determined. HeLa cells were seeded into a 96-well culture plate at a density of 5×10^3 per well in RPMI1640/phenol red free media (from GIBCO) with 2 mM L-glutamine and 10% fetal bovine serum (FBS, from GIBCO) and grown overnight in a 37° C. incubator with 5% CO2. Twenty-four hours later, human IFN-γ (from GIBCO) (final concentration 50 ng/mL) and test compound solutions (serially diluted to different wells) were added to each well with a final volume of 200 uL per well. Forty-eight hours after incubation with compounds, 140 uL supernatant was taken from each well and was transferred to a new 96-well plate. Ten microliters of 6.1 N trichloroacetic acid were added into each well, mixed and incubated at 50° C. for 30 minutes. The reaction mixture was then centrifuged for 10 minutes at 2500 rpm and 100 uL of the supernatant per well was transferred to another 96 well plate and mixed with 100 uL of 2% (w/v) p-dimethylaminobenzaldehyde in acetic acid. The yellow color derived from kynurenine was measured at 480 nm using a SPECTRAmax i3 reader. Each compound concentration was done in triplicates and compound IC50 value was calculated using nonlinear regression using Graphpad Prism 5.0.
The inhibitory activity of representative compounds described herein, compared with another IDO inhibitor, such as INCB-24360, Controls 1 and 2 are shown in Table 2.

Where [1] appears, read: HeLa cells, human IFN-γ 50 ng/mL, kynurenine read at 480 nm, read-out: IC50.
Where [2] appears, read: Homo sapiens, HeLa, HeLa cells, human IFN-γ 50 ng/mL, kynurenine read at 480 nm, read-out: IC50.

Molecules are shown by their SMILES. Where two headings read alike, the source gives them in different places.

`CCC(C(=O)O)c1ccc(N(CC(C)C)CC(C)C)c(NC(=O)Nc2cc(C)no2)c1` (single isomer, unassigned) [Compound 59A]: under setting [1], the IC50 was 12.7 nM.

For `CCC(C(=O)O)c1ccc(N(CC(C)C)CC(C)C)c(NC(=O)Nc2cc(C)no2)c1` (single isomer, unassigned) [Compound 59B], the IC50 under setting [1] stood at 0.1 nM.

For `CCC(C(=O)O)c1ccc(N(CC(C)C)CC(C)C)c(Nc2ccc(S(C)(=O)=O)cc2)c1` (single isomer, unassigned) [Compound 60A], the IC50 under setting [1] was found to be 33 nM.

For the compound `CCC(C(=O)O)c1ccc(N(CC(C)C)CC(C)C)c(Nc2ccc(S(C)(=O)=O)cc2)c1` (single isomer, unassigned) [Compound 60B], the IC50 under setting [1] is 2.8 nM.

For `CCC(C(=O)O)c1ccc(N(CC(C)C)C2CCCCC2)c(NC(=O)Nc2ccc(F)cc2F)c1` (single isomer, unassigned) [Compound 62A], the IC50 under setting [1] is 1.4 nM.

As to `CCC(C(=O)O)c1ccc(N(CC(C)C)C2CCCCC2)c(NC(=O)Nc2ccc(F)cc2F)c1` (single isomer, unassigned) [Compound 62B], the IC50 under setting [1] was determined as 0.2 nM.

For `CCC(C(=O)O)c1ccc(N(CC(C)C)C2CCCCC2)c(NC(=O)Nc2cncnc2)c1` (single isomer, unassigned) [Compound 64A], the 50% inhibitory concentration (IC50) under setting [1] is 4.2 nM.

On to `CCC(C(=O)O)c1ccc(N(CC(C)C)C2CCCCC2)c(NC(=O)Nc2cncnc2)c1` (single isomer, unassigned) [Compound 64B], for which the IC50 under setting [1] was found to be 0.2 nM.

`CCC(C(=O)O)c1ccc(N(CC(C)C)C2CCOCC2)c(NC(=O)Nc2ccc(F)cc2F)c1` (single isomer, unassigned) [Compound 65A]: under setting [1], the IC50 was 0.8 nM.

Regarding `CCC(C(=O)O)c1ccc(N(CC(C)C)C2CCOCC2)c(NC(=O)Nc2ccc(F)cc2F)c1` (single isomer, unassigned) [Compound 65B], the IC50 under setting [1] came out at 12 nM.

Take `CCC(C(=O)O)c1ccc(N(CC(C)C)C2CCOCC2)c(Nc2ccc3c(c2)OC(F)(F)O3)c1` (single isomer, unassigned) [Compound 71A]: the IC50 under setting [1] stood at 0.3 nM.

With `CCC(C(=O)O)c1ccc(N(CC(C)C)C2CCOCC2)c(Nc2ccc3c(c2)OC(F)(F)O3)c1` (single isomer, unassigned) [Compound 71B], the IC50 under setting [1] came out at 0.9 nM.

For `CC(C)CN(CC(C)C)c1ccc(CC(=O)O)cc1NC(=O)Nc1ccc(F)cc1F` [Compound 1, 2-[4-[bis(2-methylpropyl)amino]-3-[[(2,4-difluorophenyl)carbamoyl]amino]phenyl]acetic acid], under setting [2], the IC50 was 130 nM.

Take `CC(C)CN(CC(C)C)c1ccc(C(C)C(=O)O)cc1NC(=O)Nc1ccc(F)cc1F` (stereo not drawn) [Compound 2]: the IC50 under setting [2] amounted to 9.1 nM.

Consider `CC(C)CN(CC(C)C)c1ccc(C(C)(C)C(=O)O)cc1NC(=O)Nc1ccc(F)cc1F` [Compound 4], for which the IC50 under setting [2] is 14.9 nM.

Regarding `CC(C)CN(CC(C)C)c1c(F)cc(Cc2nnn[nH]2)cc1NC(=O)Nc1ccc(F)cc1F` [Compound 6], the IC50 under setting [2] turned out to be 8.5 nM.

Consider `CC(C)CN(CC(C)C)c1ccc(C2(C(=O)O)CC2)cc1NC(=O)Nc1ccc(F)cc1F` [Compound 7, 1-[4-[bis(2-methylpropyl)amino]-3-[[(2,4-difluorophenyl)carbamoyl]amino]phenyl]cyclopropane-1-carboxylic acid], for which the IC50 under setting [2] was determined as 6.3 nM.

Take `CC(C)CN(CC(C)C)c1ccc(C2(C(=O)O)CCOCC2)cc1NC(=O)Nc1ccc(F)cc1F` [Compound 8, 4-[4-[bis(2-methylpropyl)amino]-3-[[(2,4-difluorophenyl)carbamoyl]amino]phenyl]oxane-4-carboxylic acid]: under setting [2], the half-inhibitory concentration (IC50) is 47 nM.

Regarding `CC(C)CN(CC(C)C)c1ccc(C2(c3nnn[nH]3)CCCC2)cc1NC(=O)Nc1ccc(F)cc1F` [Compound 10, 3-[2-[bis(2-methylpropyl)amino]-5-[1-(1H-1,2,3,4-tetrazol-5-yl)cyclopentyl]phenyl]-1-(2,4-difluorophenyl)urea], the IC50 under setting [2] stood at 0.9 nM.

`CC(C)CN(c1ccc(C2(C(=O)O)CCCC2)cc1NC(=O)Nc1ccc(F)cc1F)C1CCCCC1` [Compound 11]: the half-maximal inhibitory concentration (IC50) under setting [2] is 0.9 nM.

On to `CC(C)CN(c1ccc(C2(C(=O)O)CCCC2)cc1NC(=O)Nc1ccc(F)cc1F)C1CCC(F)(F)CC1` [Compound 12], for which, under setting [2], the IC50 is 0.5 nM.

Regarding `O=C(Nc1ccc(F)cc1F)Nc1cc(C2(C(=O)O)CCCC2)ccc1N(CCC(F)(F)F)Cc1ccc(OC(F)(F)F)cc1` [Compound 13], under setting [2], the IC50 amounted to 0.6 nM.

Consider `Cc1ccc(NC(=O)Nc2cc(C3(C(=O)O)CCCC3)ccc2N(CCC(F)(F)F)Cc2ccc(OC(F)(F)F)cc2)cc1` [Compound 14], for which the IC50 under setting [2] was 0.5 nM.

With `Cc1cc(NC(=O)Nc2cc(C3(C(=O)O)CCCC3)ccc2N(CC(C)C)C2CCOCC2)on1` [Compound 15], the IC50 under setting [2] stood at 1.4 nM.

With `Cc1cc(NC(=O)Nc2cc(C3(C(=O)O)CCC3)ccc2N(CC(C)C)CC(C)C)on1` [Compound 17], the IC50 under setting [2] is 0.8 nM.

As for `CC(C)CN(CC(C)C)c1ccc(C2(C(=O)O)CCC2)cc1NC(=O)Nc1cncnc1` [Compound 18], under setting [2], the IC50 stood at 6.6 nM.

Turning to `CC(C)CN(CC(C)C)c1ccc(C2(c3nnn[nH]3)CCC2)cc1NC(=O)Nc1ccc(F)cc1F` [Compound 19], the concentration for half-maximal inhibition (IC50) under setting [2] is 1 nM.

On to `CCN(c1ccc(C2(C(=O)O)CCC2)cc1NC(=O)Nc1ccc(F)cc1F)C1CCCCC1` [Compound 20], for which the IC50 under setting [2] is 0.5 nM.

On to `CC(C)CN(c1ccc(C2(C(=O)O)CCC2)cc1NC(=O)Nc1ccc(F)cc1F)C1CCCCC1` [Compound 21], for which the concentration for half-maximal inhibition (IC50) under setting [2] came out at 0.6 nM.

On to `COCCN(c1ccc(C2(C(=O)O)CCC2)cc1NC(=O)Nc1ccc(F)cc1F)C1CCCCC1` [Compound 22], for which, under setting [2], the IC50 came out at 2.1 nM.

In the case of `CC(C)CN(CC(C)(C)O)c1ccc(C2(C(=O)O)CCC2)cc1NC(=O)Nc1ccc(F)cc1F` [Compound 23], the IC50 under setting [1] was 61.5 nM.

For `CCN(c1ccc(C2(C(=O)O)CCC2)cc1NC(=O)Nc1ccc(F)cc1F)C1CCOCC1` [Compound 24], the IC50 under setting [2] came to 2.2 nM.

For `Cc1cc(NC(=O)Nc2cc(C3(C(=O)O)CCC3)ccc2N(CC(C)C)C2CCOCC2)on1` [Compound 27], the IC50 under setting [2] stood at 5.7 nM.

Turning to `CC(C)CN(c1ccc(C2(C(=O)O)CCC2)cc1NC(=O)Nc1ccc(F)cc1F)C1CCN(C)CC1` [Compound 28], the 50% inhibitory concentration (IC50) (Homo sapiens, HeLa) was more than 316 nM.

With `CC(C)CN(CC(C)C)c1ccc(C2(C(=O)O)CC(F)(F)C2)cc1NC(=O)Nc1ccc(F)cc1F` [Compound 29], under setting [2], the IC50 was found to be 4 nM.

`CC(C)CN(CC(C)C)c1ccc(C2(c3nnn[nH]3)CC(F)(F)C2)cc1NC(=O)Nc1ccc(F)cc1F` [Compound 30]: under setting [2], the IC50 was 1 nM.

`CC(C)CN(CC(C)C)c1ccc(OCC(=O)O)cc1NC(=O)Nc1ccc(F)cc1F` [Compound 31]: the 50% inhibitory concentration (IC50) under setting [2] is 11.8 nM.

As to `CC(C)CN(CC(C)C)c1ccc(OC(C)(C)C(=O)O)cc1NC(=O)Nc1ccc(F)cc1F` [Compound 32], the concentration for half-maximal inhibition (IC50) under setting [2] was found to be 0.8 nM.

As to `CC(C)CN(CC(C)C)c1ccc(OC(C)(C)C(=O)O)cc1NC(=O)Nc1cncnc1` [Compound 33], the IC50 under setting [2] was 48 nM.

Regarding `Cc1cc(NC(=O)Nc2cc(OC(C)(C)C(=O)O)ccc2N(CC(C)C)CC(C)C)on1` [Compound 34], the half-inhibitory concentration (IC50) under setting [2] worked out at 7.7 nM.

On to `CC(C)CN(c1ccc(OC(C)(C)C(=O)O)cc1NC(=O)Nc1ccc(F)cc1F)C1CCCCC1` [Compound 35], for which the half-maximal inhibitory concentration (IC50) under setting [2] was 1.9 nM.

As for `CC(C)CN(CC(C)C)c1ccc(SCC(=O)O)cc1NC(=O)Nc1ccc(F)cc1F` [Compound 36], the IC50 under setting [2] came out at 2.8 nM.

As for `CC(C)CN(CC(C)C)c1ccc(SC(C)(C)C(=O)O)cc1NC(=O)Nc1ccc(F)cc1F` [Compound 37], the IC50 under setting [2] stood at 19.9 nM.

With `CC(C)CN(c1ccc(SC(C)(C)C(=O)O)cc1NC(=O)Nc1ccc(F)cc1F)C1CCCCC1` [Compound 41], the IC50 under setting [2] was found to be 6.4 nM.

On to `CC(C)CN(c1ccc(SC(C)(C)C(=O)O)cc1NC(=O)Nc1ccc(F)cc1F)C1CCOCC1` [Compound 43], for which, under setting [2], the IC50 was 134 nM.

Turning to `COCCN(c1ccc(SC(C)(C)C(=O)O)cc1NC(=O)Nc1ccc(F)cc1F)C1CCCCC1` [Compound 45], the half-inhibitory concentration (IC50) under setting [2] came to 78 nM.

Turning to `CC(C)CN(CC(C)C)c1ccc(C2(C(=O)O)CCCC2)cc1Nc1nc2ccccc2[nH]1` [Compound 47], under setting [2], the IC50 was determined as 5.6 nM.

With `CC(C)CN(CC(C)C)c1ccc(C2(C(=O)O)CCCC2)cc1Nc1ncccn1` [Compound 49], the IC50 under setting [2] is more than 316 nM.

For `CC(C)CN(c1ccc(C2(C(=O)O)CCC2)cc1NC(=O)C(C)C)C1CCOCC1` [Compound 50], under setting [2], the concentration for half-maximal inhibition (IC50) was more than 316 nM.

Consider `CC(C)CN(CC(C)C)c1ccc(C2(C(=O)O)CCCC2)cc1Nc1ccc(Cl)cc1` [Compound 51], for which the IC50 under setting [2] stood at 2.3 nM.

Turning to `CC(C)CN(c1ccc(C2(C(=O)O)CCC2)cc1Nc1ccc(Cl)cc1)C1CCCCC1` [Compound 52], the IC50 under setting [2] worked out at 0.3 nM.

As for `CCOc1ccc(Nc2cc(C3(C(=O)O)CCC3)ccc2N(CC(C)C)C2CCCCC2)cc1` [Compound 53], the IC50 under setting [2] stood at 1 nM.

Take `CC(C)CN(c1ccc(C2(C(=O)O)CCC2)cc1Nc1cncnc1)C1CCCCC1` [Compound 54]: the IC50 under setting [2] came out at 0.6 nM.

Regarding `CCOc1ncc(Nc2cc(C3(C(=O)O)CCC3)ccc2N(CC(C)C)C2CCCCC2)cn1` [Compound 55], under setting [2], the IC50 was found to be 0.3 nM.

The values above are taken from patent publication US11969425B2, “Inhibitor of indoleamine-2,3-dioxygenase (IDO)” (InventisBio LLC, priority 2016, dated 2024).
